Reference: ChEMBL document CHEMBL4219237, “Design, synthesis, evaluation, and molecular docking of ursolic acid derivatives containing a nitrogen heterocycle as anti-inflammatory agents” (Bioorg Med Chem Lett, 2018)

Experiments:
HCT-116 = assay: Cytotoxicity against human HCT116 cells assessed as growth inhibition after 24 hrs by MTT assay; assay type: cell-based; settings: HCT-116, 24 h
Mus musculus [1] = assay: Antiinflammatory activity in mouse assessed as inhibition of para-xylene-induced ear edema at 100 mg/kg, ip administered 30 mins prior to para-xylene challenge measured after 30 mins relative to control; assay type: functional
Mus musculus [2] = assay: Potency index, ratio of test compound to ibuprofen activity in mouse assessed as inhibition of para-xylene-induced ear edema at 100 mg/kg, ip; assay type: functional
Mus musculus [3] = assay: Antiinflammatory activity in mouse assessed as inhibition of para-xylene-induced ear edema at 125 mg/kg, po measured at 2 hrs relative to control; assay type: functional
AGS = assay: Cytotoxicity against human AGS cells assessed as growth inhibition after 24 hrs by MTT assay; assay type: cell-based
Mus musculus [4] = assay: Antiinflammatory activity in mouse assessed as inhibition of para-xylene-induced ear edema at 100 mg/kg, po measured at 5 hrs relative to control; assay type: functional
Mus musculus [5] = assay: Antiinflammatory activity in mouse assessed as inhibition of para-xylene-induced ear edema at 25 mg/kg, po measured at 2 hrs relative to control; assay type: functional
Mus musculus [6] = assay: Antiinflammatory activity in mouse assessed as inhibition of para-xylene-induced ear edema at 100 mg/kg, po measured at 1 hr relative to control; assay type: functional
Mus musculus [7] = assay: Antiinflammatory activity in mouse assessed as inhibition of para-xylene-induced ear edema at 100 mg/kg, po measured at 2 hrs relative to control; assay type: functional
Mus musculus [8] = assay: Antiinflammatory activity in mouse assessed as inhibition of para-xylene-induced ear edema at 100 mg/kg, po measured at 4 hrs relative to control; assay type: functional
Mus musculus [9] = assay: Antiinflammatory activity in mouse assessed as inhibition of para-xylene-induced ear edema at 50 mg/kg, po measured at 2 hrs relative to control; assay type: functional
L02 = assay: Cytotoxicity against human L02 cells assessed as growth inhibition after 24 hrs by MTT assay; assay type: cell-based; settings: L02, 24 h
Mus musculus [10] = assay: Antiinflammatory activity in mouse assessed as inhibition of para-xylene-induced ear edema at 100 mg/kg, po measured at 3 hrs relative to control; assay type: functional

SMILES | IC50 (HCT-116) [µM] | inhibition in vivo at 100 mg/kg (Mus musculus [1]) [%] | other results
C[C@H]1[C@H](C)CC[C@]2(C(=O)OCc3nnc(-c4ccc(Br)cc4)o3)CC[C@]3(C)C(=CC[C@@H]4[C@@]5(C)CC[C@H](O)C(C)(C)[C@@H]5CC[C@]43C)[C@H]12 | > 100 | 68.9 | 
C[C@H]1[C@H](C)CC[C@]2(C(=O)OCCCN3CCN(Cc4nnc(-c5ccccc5)o4)CC3)CC[C@]3(C)C(=CC[C@@H]4[C@@]5(C)CC[C@H](O)C(C)(C)[C@@H]5CC[C@]43C)[C@H]12 | > 100 | 47.8 | 
C[C@H]1[C@H](C)CC[C@]2(C(=O)OCCn3ncn(-c4ccccc4)c3=O)CC[C@]3(C)C(=CC[C@@H]4[C@@]5(C)CC[C@H](O)C(C)(C)[C@@H]5CC[C@]43C)[C@H]12 | > 100 | 64.2 | 
C[C@H]1[C@H](C)CC[C@]2(C(=O)OCc3nnc(-c4ccccc4Cl)o3)CC[C@]3(C)C(=CC[C@@H]4[C@@]5(C)CC[C@H](O)C(C)(C)[C@@H]5CC[C@]43C)[C@H]12 | > 100 | 38.8 | 
C[C@H]1[C@H](C)CC[C@]2(C(=O)OCCCN3CCN(Cc4nnc(-c5ccccc5Cl)o4)CC3)CC[C@]3(C)C(=CC[C@@H]4[C@@]5(C)CC[C@H](O)C(C)(C)[C@@H]5CC[C@]43C)[C@H]12 | > 100 | 32 | 
C[C@H]1[C@H](C)CC[C@]2(C(=O)OCCCCCn3ncn(-c4ccccc4)c3=O)CC[C@]3(C)C(=CC[C@@H]4[C@@]5(C)CC[C@H](O)C(C)(C)[C@@H]5CC[C@]43C)[C@H]12 | > 100 | 56.7 | Ratio (Mus musculus [2]): 2
C[C@H]1[C@H](C)CC[C@]2(C(=O)OCc3nnc(-c4ccc(Cl)cc4)o3)CC[C@]3(C)C(=CC[C@@H]4[C@@]5(C)CC[C@H](O)C(C)(C)[C@@H]5CC[C@]43C)[C@H]12 | > 100 |  | 
C[C@H]1[C@H](C)CC[C@]2(C(=O)OCCCN3CCN(Cc4nnc(-c5ccc(F)cc5)o4)CC3)CC[C@]3(C)C(=CC[C@@H]4[C@@]5(C)CC[C@H](O)C(C)(C)[C@@H]5CC[C@]43C)[C@H]12 | > 100 | 58.7 | 
Cc1ccc(-c2nnc(COC(=O)[C@]34CC[C@@H](C)[C@H](C)[C@H]3C3=CC[C@@H]5[C@@]6(C)CC[C@H](O)C(C)(C)[C@@H]6CC[C@@]5(C)[C@]3(C)CC4)o2)cc1 | > 100 | 58.2 | 
C[C@H]1[C@H](C)CC[C@]2(C(=O)OCCN3CCN(Cc4nnc(-c5cccc(Br)c5)o4)CC3)CC[C@]3(C)C(=CC[C@@H]4[C@@]5(C)CC[C@H](O)C(C)(C)[C@@H]5CC[C@]43C)[C@H]12 | > 100 | 61 | 
C[C@H]1[C@H](C)CC[C@]2(C(=O)OCCCCn3ncn(-c4ccccc4)c3=O)CC[C@]3(C)C(=CC[C@@H]4[C@@]5(C)CC[C@H](O)C(C)(C)[C@@H]5CC[C@]43C)[C@H]12 | > 100 | 66.1 | Ratio (Mus musculus [2]): 2
Cc1ccccc1-c1nnc(COC(=O)[C@]23CC[C@@H](C)[C@H](C)[C@H]2C2=CC[C@@H]4[C@@]5(C)CC[C@H](O)C(C)(C)[C@@H]5CC[C@@]4(C)[C@]2(C)CC3)o1 | > 100 | 57.2 | 
C[C@H]1[C@H](C)CC[C@]2(C(=O)OCCCn3ncn(-c4ccccc4)c3=O)CC[C@]3(C)C(=CC[C@@H]4[C@@]5(C)CC[C@H](O)C(C)(C)[C@@H]5CC[C@]43C)[C@H]12 | > 100 | 69.8 | Ratio (Mus musculus [2]): 2; inhibition in vivo at 125 mg/kg (Mus musculus [3]): 50.1%; IC50 (AGS): > 200 µM; inhibition in vivo at 100 mg/kg (Mus musculus [4]): 16.4%; inhibition in vivo at 25 mg/kg (Mus musculus [5]): 19.7%; inhibition in vivo at 100 mg/kg (Mus musculus [6]): 22.6%; inhibition in vivo at 100 mg/kg (Mus musculus [7]): 41.2 to 47.9%; inhibition in vivo at 100 mg/kg (Mus musculus [8]): 20.2%; inhibition in vivo at 50 mg/kg (Mus musculus [9]): 35.2%; IC50 (L02): > 200 µM; inhibition in vivo at 100 mg/kg (Mus musculus [10]): 29.7%
C[C@H]1[C@H](C)CC[C@]2(C(=O)OCc3nnc(-c4ccccc4)o3)CC[C@]3(C)C(=CC[C@@H]4[C@@]5(C)CC[C@H](O)C(C)(C)[C@@H]5CC[C@]43C)[C@H]12 | > 100 | 62.3 | 
C[C@H]1[C@H](C)CC[C@]2(C(=O)OCCCN3CCN(Cc4nnc(-c5cccc(Br)c5)o4)CC3)CC[C@]3(C)C(=CC[C@@H]4[C@@]5(C)CC[C@H](O)C(C)(C)[C@@H]5CC[C@]43C)[C@H]12 | > 100 | 66.5 | 
C[C@H]1[C@H](C)CC[C@]2(C(=O)OCc3nnc(-c4cccc(Cl)c4)o3)CC[C@]3(C)C(=CC[C@@H]4[C@@]5(C)CC[C@H](O)C(C)(C)[C@@H]5CC[C@]43C)[C@H]12 | > 100 | 65.4 | 
C[C@H]1[C@H](C)CC[C@]2(C(=O)OCc3nnc(-c4ccccc4Br)o3)CC[C@]3(C)C(=CC[C@@H]4[C@@]5(C)CC[C@H](O)C(C)(C)[C@@H]5CC[C@]43C)[C@H]12 | > 100 | 55.3 | 
C[C@H]1[C@H](C)CC[C@]2(C(=O)OCCN3CCN(Cc4nnc(-c5ccccc5)o4)CC3)CC[C@]3(C)C(=CC[C@@H]4[C@@]5(C)CC[C@H](O)C(C)(C)[C@@H]5CC[C@]43C)[C@H]12 | > 100 | 59.1 | 
C[C@H]1[C@H](C)CC[C@]2(C(=O)OCc3nnc(-c4cccc(Br)c4)o3)CC[C@]3(C)C(=CC[C@@H]4[C@@]5(C)CC[C@H](O)C(C)(C)[C@@H]5CC[C@]43C)[C@H]12 | > 100 | 53.7 | 
Cc1cccc(-c2nnc(COC(=O)[C@]34CC[C@@H](C)[C@H](C)[C@H]3C3=CC[C@@H]5[C@@]6(C)CC[C@H](O)C(C)(C)[C@@H]6CC[C@@]5(C)[C@]3(C)CC4)o2)c1 | > 100 |  | 
CC(C)Cc1ccc(C(C)C(=O)O)cc1 (configuration not stated) [IBUPROFEN] |  | 25.2 | 
COc1ccc2c(c1)c(CC(=O)O)c(C)n2C(=O)c1ccc(Cl)cc1 [INDOMETHACIN] |  | 26.8 | inhibition in vivo at 125 mg/kg (Mus musculus [3]): 38.7%; inhibition in vivo at 100 mg/kg (Mus musculus [4]): 10.3%; inhibition in vivo at 25 mg/kg (Mus musculus [5]): 4.85%; inhibition in vivo at 100 mg/kg (Mus musculus [6]): 12%; inhibition in vivo at 100 mg/kg (Mus musculus [7]): 30.9 to 33.3%; inhibition in vivo at 100 mg/kg (Mus musculus [8]): 15.6%; inhibition in vivo at 50 mg/kg (Mus musculus [9]): 22.8%; inhibition in vivo at 100 mg/kg (Mus musculus [10]): 18.6%
C[C@H]1[C@H](C)CC[C@]2(C(=O)O)CC[C@]3(C)C(=CC[C@@H]4[C@@]5(C)CC[C@H](O)C(C)(C)[C@@H]5CC[C@]43C)[C@H]12 [URSOLIC ACID] |  | 57.7 | 
